The values below are quoted from earlier work in US20100104547A1, “TOPICAL COMPOSITION FOR THE TREATMENT OF ALLERGENIC EFFECTS” (priority 2005, published 2010).

The conditions of series [1]: topical application.
The conditions of series [2]: mice, bee venom intradermal; test substance by intradermal injection or topical application.

For pancreatin, the “reducing the itch associated with mosquito and black fly bites” value (from here on “reducing the itch associated”) in series [1] is given as “effective”.

With subtilisin, the “reducing the itch associated” value in series [1] was “effective”.

B1: papain (protein, UniProt P00784 134-345, looked up)
Papain: IPEYVDWRQKGAVTPVKNQGSCGSCWAFSAVVTIEGIIKIRTGNLNEYSEQELLDCDRRSYGCNGGYPWSALQLVAQYGIHYRNTYPYEGVQRYCRSREKGPYAAKTDGVRQVQPYNEGALLYSIANQPVSVVLEAAGKDFQLYRGGIFVGPCGNKVDHAVAAVGYGPNYILIKNSWGTGWGENGYIRIKRGTGNSYGVCGLYTSSFYPVKN
notes: proteolytic enzyme, commonly in the form of meat tenderizer
On to B1, for which, in series [1], the “reducing the itch associated” value is recorded as “effective”. Moreover, the “inhibition of lesion development” value in series [2] is reported as “no marked inhibition”.
